Data: PMC10611619, “[^99mTc]Tc-PentixaTec: development, extensive pre-clinical evaluation, and first human experience” (European Journal of Nuclear Medicine and Molecular Imaging, 2023)
Where a SMILES comes first, the peptide text is derived from it. Side-chain parts run from the residue outwards. [ ]: non-standard residue; d: D form. The star is where a group is joined. 2Nal = N[C@@H](Cc1ccc2ccccc2c1)C(=O)O; dNMeOrn = CN[C@H](CCCN)C(=O)O; 4Abz = Nc1ccc(C(=O)O)cc1; X1 = NCCNCC(CNCCN)C(=O)*; dDap = NC[C@@H](N)C(=O)O

Experiment: Patient radiation dosimetry (OLINDA/EXM, RADAR/MIRD)
Type: in vivo, human
Conditions: for Absorbed organ dose Muscle / Absorbed organ dose Osteogenic cells / Absorbed organ dose Ovaries / Absorbed organ dose Pancreas / Absorbed organ dose Red marrow / Absorbed organ dose Skin / Absorbed organ dose Small intestine / Absorbed organ dose Spleen / Absorbed organ dose Stomach wall / Absorbed organ dose Thymus / Absorbed organ dose Thyroid / Absorbed organ dose Total body / Absorbed organ dose ULI wall / Absorbed organ dose Urinary bladder wall / Absorbed organ dose Uterus / Absorbed organ dose Adrenals / Absorbed organ dose Brain / Absorbed organ dose Breast / Absorbed organ dose Gallbladder wall / Absorbed organ dose Heart wall / Absorbed organ dose Kidneys / Absorbed organ dose LLI wall / Absorbed organ dose Liver / Absorbed organ dose Lungs / Absorbed organ dose Testes: per 1 MBq
Procedure: Radiation dosimetry calculations were performed using the RADAR (Radiation Dose Assessment Resource) method as implemented in the OLINDA/EXM software and according to the recommendations of the Medical Internal Radiation Dose (MIRD) committee. The individual absorbed organ doses (ODs) and the effective doses (EDs) were corrected to consider the current tissue weighting factors of ICRP 103 [38]. For a detailed description of image analysis for dosimetry, please refer to the supplementary materials section.
The Xeleris^TM Dosimetry Toolkit (GE Healthcare, Milwaukee, USA) was used to perform full organ segmentation by an experienced user. This was performed manually on CT images of organs (kidneys, liver, spleen, heart, lungs, lumbar vertebrae 2-4) to define the regions and volumes of interest (VOIs) for gamma camera scans and SPECT analysis. Quantification of the activity in the VOIs was carried out as converting counts in the VOIs by a calibration factor to the average activity per milliliter and per organ.
The VOIs were transferred from SPECT/CT to the planar images. Additional ROIs for the whole body and a background region adjacent to the head were drawn on the planar images.
The VOIs were used to determine the masses of the individual organs. For the lungs, a density of 0.288 g/mL was used. For all organs not covered by any VOI, the uptake was summed as the contribution from the remainder of the body in the dose calculation.
The time-integrated activity coefficients of all contoured organs were determined using the hybrid planar/SPECT method. Thus, the shape of the time-activity curves were estimated based on the planar images using the NUKFIT software and then scaled to activity values using the SPECT/CT. The accumulated activity in the bone marrow was calculated using the activity in the lumbar vertebrae 2-4 with the assumption that these contain 6.7% of the red bone marrow.
Radiation dosimetry calculations were performed using the RADAR (Radiation Dose Assessment Resource) method as implemented in the OLINDA/EXM software and according to the recommendations of the Medical Internal Radiation Dose (MIRD) committee. The OLINDA/EXM application (version 1.0) was used to calculate the individual absorbed organ doses (ODs) and the effective doses (EDs) by using the time-integrated activity coefficients and the individual patients’ organ masses. A mass of 1500 g for the red bone marrow as assumed for all patients. The EDs were afterwards corrected to consider the current tissue weighting factors of ICRP 103 [16]. The absorbed OD and ED were evaluated for each patient and then averaged across all the patients.

## C[C@@H](NC(=O)[C@@H](CCCNC(=N)N)NC(=O)[C@@H](CN)NC(=O)C(CNCCN)CNCCN)C(=O)Nc1ccc(C(=O)NCCC[C@@H]2C(=O)N[C@@H](CCCNC(=N)N)C(=O)N[C@@H](Cc3ccc4ccccc4c3)C(=O)NCC(=O)N[C@H](Cc3ccc(O)cc3)C(=O)N2C)cc1 [[^99mTc]Tc-N4-L6-CPCR4, [^99mTc]Tc-N4-dap-r-a-Abz-CPCR4, metal not drawn] (cyclo([dY][dNMeOrn]([4Abz-dA-dR-dDap-X1])R[2Nal]G))
Patient 3
  Absorbed organ dose Muscle: 0.0044 mGy
  Absorbed organ dose Osteogenic cells: 0.0184 mGy
  Absorbed organ dose Ovaries: 0.0064 mGy
  Absorbed organ dose Pancreas: 0.0092 mGy
  Absorbed organ dose Red marrow: 0.0123 mGy
  Absorbed organ dose Skin: 0.0027 mGy
  Absorbed organ dose Small intestine: 0.0062 mGy
  Absorbed organ dose Spleen: 0.0202 mGy
  Absorbed organ dose Stomach wall: 0.0066 mGy
  Absorbed organ dose Thymus: 0.0045 mGy
  Absorbed organ dose Thyroid: 0.0039 mGy
  Absorbed organ dose Total body: 0.0052 mGy
  Absorbed organ dose ULI wall: 0.0063 mGy
  Absorbed organ dose Urinary bladder wall: 0.0053 mGy
  Absorbed organ dose Uterus: 0.0059 mGy
Patient 4
  Absorbed organ dose Adrenals: 0.00524 mGy
  Absorbed organ dose Brain: 0.00278 mGy
  Absorbed organ dose Breast: 0.00227 mGy
  Absorbed organ dose Gallbladder wall: 0.00502 mGy
  Absorbed organ dose Heart wall: 0.00317 mGy
  Absorbed organ dose Kidneys: 0.00936 mGy
  Absorbed organ dose LLI wall: 0.00428 mGy
  Absorbed organ dose Liver: 0.00636 mGy
  Absorbed organ dose Lungs: 0.00337 mGy
  Absorbed organ dose Muscle: 0.00318 mGy
  Absorbed organ dose Osteogenic cells: 0.011 mGy
  Absorbed organ dose Ovaries: 0.00451 mGy
  Absorbed organ dose Pancreas: 0.00571 mGy
  Absorbed organ dose Red marrow: 0.00617 mGy
  Absorbed organ dose Skin: 0.00209 mGy
  Absorbed organ dose Small intestine: 0.00455 mGy
  Absorbed organ dose Spleen: 0.0188 mGy
  Absorbed organ dose Stomach wall: 0.00441 mGy
  Absorbed organ dose Testes: 0.00282 mGy
  Absorbed organ dose Thymus: 0.00324 mGy
  Absorbed organ dose Thyroid: 0.00329 mGy
  Absorbed organ dose Total body: 0.00351 mGy
  Absorbed organ dose ULI wall: 0.00441 mGy
  Absorbed organ dose Urinary bladder wall: 0.00385 mGy
  Absorbed organ dose Uterus: 0.0044 mGy
Range Max
  Absorbed organ dose Adrenals: 0.0083 mGy
  Absorbed organ dose Brain: 0.0039 mGy
  Absorbed organ dose Breast: 0.0032 mGy
  Absorbed organ dose Gallbladder wall: 0.0073 mGy
  Absorbed organ dose Heart wall: 0.0054 mGy
  Absorbed organ dose Kidneys: 0.0137 mGy
  Absorbed organ dose LLI wall: 0.0062 mGy
  Absorbed organ dose Liver: 0.0089 mGy
  Absorbed organ dose Lungs: 0.0079 mGy
  Absorbed organ dose Muscle: 0.0044 mGy
  Absorbed organ dose Osteogenic cells: 0.0184 mGy
  Absorbed organ dose Ovaries: 0.0064 mGy
  Absorbed organ dose Pancreas: 0.0092 mGy
  Absorbed organ dose Red marrow: 0.0135 mGy
  Absorbed organ dose Skin: 0.0027 mGy
  Absorbed organ dose Small intestine: 0.0062 mGy
  Absorbed organ dose Spleen: 0.0238 mGy
  Absorbed organ dose Stomach wall: 0.0066 mGy
  Absorbed organ dose Testes: 0.0028 mGy
  Absorbed organ dose Thymus: 0.0045 mGy
  Absorbed organ dose Thyroid: 0.0039 mGy
  Absorbed organ dose Total body: 0.0052 mGy
  Absorbed organ dose ULI wall: 0.0063 mGy
  Absorbed organ dose Urinary bladder wall: 0.0053 mGy
  Absorbed organ dose Uterus: 0.0059 mGy
Range Min
  Absorbed organ dose Adrenals: 0.0052 mGy
  Absorbed organ dose Brain: 0.0023 mGy
  Absorbed organ dose Breast: 0.0021 mGy
  Absorbed organ dose Gallbladder wall: 0.0050 mGy
  Absorbed organ dose Heart wall: 0.0032 mGy
  Absorbed organ dose Kidneys: 0.0094 mGy
  Absorbed organ dose LLI wall: 0.0037 mGy
  Absorbed organ dose Liver: 0.0064 mGy
  Absorbed organ dose Lungs: 0.0034 mGy
  Absorbed organ dose Muscle: 0.0028 mGy
  Absorbed organ dose Osteogenic cells: 0.0099 mGy
  Absorbed organ dose Ovaries: 0.0040 mGy
  Absorbed organ dose Pancreas: 0.0055 mGy
  Absorbed organ dose Red marrow: 0.0062 mGy
  Absorbed organ dose Skin: 0.0018 mGy
  Absorbed organ dose Small intestine: 0.0041 mGy
  Absorbed organ dose Spleen: 0.0161 mGy
  Absorbed organ dose Stomach wall: 0.0040 mGy
  Absorbed organ dose Testes: 0.0023 mGy
  Absorbed organ dose Thymus: 0.0030 mGy
  Absorbed organ dose Thyroid: 0.0028 mGy
  Absorbed organ dose Total body: 0.0028 mGy
  Absorbed organ dose ULI wall: 0.0040 mGy
  Absorbed organ dose Urinary bladder wall: 0.0033 mGy
  Absorbed organ dose Uterus: 0.0038 mGy
Per 500 MBq
  effective dose, range: 2.1–3.4 mSv
Standard activity of 500 MBq
  effective dose, median: 2.7 mSv
